Measurements reported in article PMC4769088, “Antifungal Activity and Action Mechanism of Histatin 5-Halocidin Hybrid Peptides against Candida ssp” (PLoS ONE, 2016).
Where a SMILES comes first, the peptide text is derived from it. Bridges are numbered along the chain shown (N, C = ends). Roman numbers before positions name the chains, in order.

Legend:
[1] = system: laminarin (β-1,3-glucan polymer), C. albicans cell wall component; experiment: Binding/radial diffusion assay with laminarin; format: cell-based; conditions: peptide final 180 μg/ml, pre-incubated 2 h at 37°C, radial diffusion assay
Protocol: The candidacidal activities of the peptides were tested by using standard microdilution plate assays, radial diffusion assays and broth dilution assay slightly modified from the procedure recommended by the National Committee for Clinical Laboratory Standards. For the candidacidal assays, C. albicans cells were grown in YPD medium and washed twice with 10 mM sodium phosphate buffer (NaPB; Na2HPO4, NaH2PO4, pH 7.4). The cells (1 x 10^6) were then mixed with different concentrations of peptides and incubated at 30°C with constant shaking for 60 min. For energy depletion experiments, cells were pre-incubated with 10 mM NaPB containing 5 mM NaN3 at 30°C for 60 min before the addition of peptides. The cell suspensions were diluted in 10 mM NaPB and aliquots of 500 cells were spread onto YPD agar plates then incubated for 24 h at 30°C to visualize the surviving colonies. Cell survival was expressed as a percentage of that for the control, and the loss of viability was calculated as [1 x (number of colonies from peptide-treated cells/number of colonies from control cells)] x 100. Candidacidal assays were performed in triplicate. For the radial diffusion assay, C. albicans cells were grown in YPD medium overnight and washed twice with 10 mM NaPB. Washed yeast-phase C. albicans cells (1 x 10^6 CFU) were trapped in thin underlay gels containing 9 mM sodium phosphate, 1 mM sodium citrate buffer, 1% (wt/vol) agarose (A6013; Sigma), and 0.3 mg of Sabouraud dextrose broth (Difco)/ml. After incubation at 37°C for 3 h, a 10 ml overlay gel of 1% agarose and 6% Sabouraud dextrose broth was poured on the underlay gel and then the plates were incubated overnight at 37°C. The clear-zone diameters were measured to the nearest 0.1 mm and graphed against the peptide concentration. Zone diameters were expressed in units (0.1 mm = 1 unit). For the broth dilution assay, the Candida strains were cultured in LYM broth for 18 h at 30°C. The numbers of yeasts were counted using a hemocytometer. Stock peptide solutions were prepared to a concentration of 320 μg/ml in distilled water, and were then serially diluted twofold, to 5 μg/ml. 100 μl aliquots of the diluted culture media containing candida cells (1 x 10^3) were dispensed into the wells of 96-well polypropylene microtiter plates (Costar 3879, Corning, NY), to which peptide solution (11 μl) was then added. […] The antifungal activities were evaluated after 24 h of incubation at 30°C by the observation of visible turbidity the wells. The MIC values were expressed as intervals (a–b), with a representing the highest tested concentration at which microbes continue to grow, and b representing the lowest concentration at which growth inhibition could be detected.
Binding of hybrid peptides to the surface of C. albicans cells was examined by assessing the inhibitory effect of fungal cell wall components on the antimicrobial activity of the hybrid peptides. 20 μl of a pre-determined concentration of the peptides was added to 80 μl of each polysaccharide (0.07–40 mg/ml in 10 mM NaPB) including laminarin (β-1,3-glucan polymer; Sigma), pustulan (β-1,6-glucan polymer; Calbiochem) or mannan (mannose polymer; Sigma) and incubated for 2 h at 37°C. The inhibitory effects of the polysaccharides on the antimicrobial activity of the peptides were assessed by radial diffusion assay as described above. […]

[2] = CD spectra, secondary structure analysis; format: physicochemical; conditions: 200 μg/ml peptide
Protocol: Circular dichroism (CD) spectra of the six peptides (Hst5, P113, HHP1, di-PH2, di-WP2 and di-18Hc) were measured with a J-715 spectropolarimeter (Jasco, Tokyo, Japan). Two hundred micrograms of each peptide was resuspended in 1 ml of 10 mM NaPB (pH 7.0) (i) without other additives, (ii) with 10% laminarin (LAM) or (iii) with 50% trifluoroethanol (TFE) (a known helix-inducing solvent). The spectra were measured at room temperature in a 1-mm-path-length quartz cell. The scanning speed was 10 nm/min (180 to 260 nm), and each spectrum was the average of five scans.
Fig 3 CD spectra of Hst5, P113, di-18Hc and hybrid peptides. This study was performed with one concentration (200 μg/ml) of each peptide in various buffers: 10 mM sodium phosphate buffer (Red line), 50% TFE in phosphate buffer (green line) and 20 mg of laminarin in phosphate buffer.

Candida albicans cells = experiment: Confocal microscopy localization and FITC-peptide/PI uptake assay; format: cell-based; conditions: FITC-peptides and propidium iodide uptake assay, measured for 60 min
Protocol: To confirm the killing effect of the peptides, washed Candida cells (1 × 10^7 cells/ml) were treated with the peptides and propidium iodide (PI) was added. For energy depletion experiments, cells were pre-incubated with 10 mM NaPB containing 5 mM NaN3 at 30°C for 60 min before the addition of peptides. Propidium iodide (PI) uptake was measured using a multi reader and calculated with the formula [propidium iodide (PI) uptake value of peptide-treated cells—propidium iodide (PI) value of control cells] C. albicans cells were attached to concanavalin A (Sigma, 1 mg/ml solution in water) coated coverglass in chambered wells (Lab-Tek II). Cells (1 x 10^6) were deposited in each well, and 1 ml of 10 mM NaPB containing 5 μg PI (Sigma) and FITC-labeled peptides (Final concentration 10 μg/ml) were added to the chamber. Confocal images were acquired with an Olympus Fluoview FV10i-DOC (Olympus, Tokyo, Japan). ImageJ software was used for image acquisition and analysis.  Fig 5 Localizations of FITC-peptides in Candida albicans cells. C. albicans cells were incubated for 10 minutes with 10 μg/ml of FITC-peptides and visualized by confocal microscopy. […] FITC-peptides and PI uptake was measured for 60 min in Perkin Elmer 2030 reader (VictorX 3).

Candida cells = experiment: Candidacidal activity in energy depleted (azide) cells; format: cell-based, Candida albicans; conditions: cells pre-incubated for 60 min in 5 mM NaN3 at 30°C, colony count assay
Protocol: The candidacidal activities of the peptides were tested by using standard microdilution plate assays, radial diffusion assays and broth dilution assay slightly modified from the procedure recommended by the National Committee for Clinical Laboratory Standards. For the candidacidal assays, C. albicans cells were grown in YPD medium and washed twice with 10 mM sodium phosphate buffer (NaPB; Na2HPO4, NaH2PO4, pH 7.4). The cells (1 x 10^6) were then mixed with different concentrations of peptides and incubated at 30°C with constant shaking for 60 min. For energy depletion experiments, cells were pre-incubated with 10 mM NaPB containing 5 mM NaN3 at 30°C for 60 min before the addition of peptides. The cell suspensions were diluted in 10 mM NaPB and aliquots of 500 cells were spread onto YPD agar plates then incubated for 24 h at 30°C to visualize the surviving colonies. Cell survival was expressed as a percentage of that for the control, and the loss of viability was calculated as [1 x (number of colonies from peptide-treated cells/number of colonies from control cells)] x 100. Candidacidal assays were performed in triplicate. For the radial diffusion assay, C. albicans cells were grown in YPD medium overnight and washed twice with 10 mM NaPB. Washed yeast-phase C. albicans cells (1 x 10^6 CFU) were trapped in thin underlay gels containing 9 mM sodium phosphate, 1 mM sodium citrate buffer, 1% (wt/vol) agarose (A6013; Sigma), and 0.3 mg of Sabouraud dextrose broth (Difco)/ml. After incubation at 37°C for 3 h, a 10 ml overlay gel of 1% agarose and 6% Sabouraud dextrose broth was poured on the underlay gel and then the plates were incubated overnight at 37°C. The clear-zone diameters were measured to the nearest 0.1 mm and graphed against the peptide concentration. Zone diameters were expressed in units (0.1 mm = 1 unit). For the broth dilution assay, the Candida strains were cultured in LYM broth for 18 h at 30°C. The numbers of yeasts were counted using a hemocytometer. Stock peptide solutions were prepared to a concentration of 320 μg/ml in distilled water, and were then serially diluted twofold, to 5 μg/ml. 100 μl aliquots of the diluted culture media containing candida cells (1 x 10^3) were dispensed into the wells of 96-well polypropylene microtiter plates (Costar 3879, Corning, NY), to which peptide solution (11 μl) was then added. In the experiments conducted to assess the candidacidal activity of peptides in the presence of salt, we used LYM supplemented with 150 mM NaCl for the culture medium, which was mixed with the peptide solution. The antifungal activities were evaluated after 24 h of incubation at 30°C by the observation of visible turbidity the wells. The MIC values were expressed as intervals (a–b), with a representing the highest tested concentration at which microbes continue to grow, and b representing the lowest concentration at which growth inhibition could be detected.
To confirm the killing effect of the peptides, washed Candida cells (1 × 10^7 cells/ml) were treated with the peptides and propidium iodide (PI) was added. For energy depletion experiments, cells were pre-incubated with 10 mM NaPB containing 5 mM NaN3 at 30°C for 60 min before the addition of peptides. Propidium iodide (PI) uptake was measured using a multi reader and calculated with the formula [propidium iodide (PI) uptake value of peptide-treated cells—propidium iodide (PI) value of control cells]
Fig 6 The effects of azide on killing activity of peptides. […]

[3] = solvent 10mM NaPB (pH 7.0), room temperature, average of five scans

Row | Secondary structure (%) Beta ([2]; solvent 10mM NaPB (pH 7.0)) [%] | Secondary structure (%) Random ([2]; solvent 10mM NaPB (pH 7.0)) [%] | Secondary structure (%) Turn ([2]; solvent 10mM NaPB (pH 7.0)) [%] | Secondary structure (%) Helix [2, 3] [%] | Secondary structure (%) Beta ([2]; solvent 50% TFE in 10 mM NaPB) [%] | Secondary structure (%) Helix ([2]; solvent 50% TFE in 10 mM NaPB) [%] | Secondary structure (%) Random ([2]; solvent 50% TFE in 10 mM NaPB) [%] | Secondary structure (%) Turn ([2]; solvent 50% TFE in 10 mM NaPB) [%] | SMILES | laminarin concentration at which antimicrobial activity was drastically decreased by pre-incubation [1] [mg/mL] | FITC intensity in Candida cells (Candida albicans cells) | antimicrobial activities in energy depleted cells (Candida cells)
1 | 19.3 | 74.5 | 6.2 | 0 | 7.3 | 76.2 | 0.0 | 16.4 | C[C@H](NC(=O)[C@H](Cc1c[nH]cn1)NC(=O)[C@H](CO)NC(=O)[C@@H](N)CC(=O)O)C(=O)N[C@@H](CCCCN)C(=O)N[C@@H](CCCNC(=N)N)C(=O)N[C@@H](Cc1c[nH]cn1)C(=O)N[C@@H](Cc1c[nH]cn1)C(=O)NCC(=O)N[C@@H](Cc1ccc(O)cc1)C(=O)N[C@@H](CCCCN)C(=O)N[C@@H](CCCNC(=N)N)C(=O)N[C@@H](CCCCN)C(=O)N[C@@H](Cc1ccccc1)C(=O)N[C@@H](Cc1c[nH]cn1)C(=O)N[C@@H](CCC(=O)O)C(=O)N[C@@H](CCCCN)C(=O)N[C@@H](Cc1c[nH]cn1)C(=O)N[C@@H](Cc1c[nH]cn1)C(=O)N[C@@H](CO)C(=O)N[C@@H](Cc1c[nH]cn1)C(=O)N[C@@H](CCCNC(=N)N)C(=O)NCC(=O)N[C@@H](Cc1ccc(O)cc1)C(=O)O [Hst 5, Histatin 5] | 2.5 | increased in a time dependent manner | significantly reduced
2 | 29.2 | 61.5 | 5.5 | 3.8 | 10.4 | 47.0 | 28.4 | 14.2 | CC(C)C[C@H](NC(=O)CNC(=O)[C@H](Cc1c[nH]cn1)NC(=O)[C@H](Cc1c[nH]cn1)NC(=O)[C@H](CC(C)C)NC(=O)[C@H](CC(C)C)NC(=O)[C@H](C)NC(=O)[C@H](CC(N)=O)NC(=O)[C@H](CC(C)C)NC(=O)[C@@H](N)Cc1c[nH]c2ccccc12)C(=O)N[C@@H](CC(N)=O)C(=O)N[C@@H](CSSC[C@H](NC(=O)[C@H](CC(N)=O)NC(=O)[C@H](CC(C)C)NC(=O)CNC(=O)[C@H](Cc1c[nH]cn1)NC(=O)[C@H](Cc1c[nH]cn1)NC(=O)[C@H](CC(C)C)NC(=O)[C@H](CC(C)C)NC(=O)[C@H](C)NC(=O)[C@H](CC(N)=O)NC(=O)[C@H](CC(C)C)NC(=O)[C@@H](N)Cc1c[nH]c2ccccc12)C(=O)N[C@@H](C)C(=O)N[C@@H](CCCCN)C(=O)NCC(=O)N[C@H](C(=O)N[C@@H](CC(C)C)C(=O)N[C@@H](C)C(N)=O)C(C)C)C(=O)N[C@@H](C)C(=O)N[C@@H](CCCCN)C(=O)NCC(=O)N[C@H](C(=O)N[C@@H](CC(C)C)C(=O)N[C@@H](C)C(N)=O)C(C)C [di-18Hc, reference compound] (I: H-WLNALLHHGLNCAKGVLA-NH2 / II: H-WLNALLHHGLNCAKGVLA-NH2; disulfide I:12-II:12 (inferred); N-terminus assumed) | 0.3 | – | not inhibited
3 | 22.0 | 63.2 | 14.8 | 0.0 | 25.7 | 7.8 | 52.5 | 13.9 | CC(C)C[C@H](NC(=O)[C@@H](N)Cc1c[nH]c2ccccc12)C(=O)N[C@@H](CC(N)=O)C(=O)N[C@@H](C)C(=O)N[C@@H](CCCCN)C(=O)N[C@@H](CCCNC(=N)N)C(=O)N[C@@H](Cc1c[nH]cn1)C(=O)N[C@@H](Cc1c[nH]cn1)C(=O)NCC(=O)N[C@@H](Cc1ccc(O)cc1)C(=O)N[C@@H](CCCCN)C(=O)N[C@@H](CSSC[C@H](NC(=O)[C@H](CCCCN)NC(=O)[C@H](Cc1ccc(O)cc1)NC(=O)CNC(=O)[C@H](Cc1c[nH]cn1)NC(=O)[C@H](Cc1c[nH]cn1)NC(=O)[C@H](CCCNC(=N)N)NC(=O)[C@H](CCCCN)NC(=O)[C@H](C)NC(=O)[C@H](CC(N)=O)NC(=O)[C@H](CC(C)C)NC(=O)[C@@H](N)Cc1c[nH]c2ccccc12)C(=O)N[C@@H](CCCCN)C(=O)N[C@@H](Cc1ccccc1)C(=O)N[C@@H](Cc1c[nH]cn1)C(N)=O)C(=O)N[C@@H](CCCCN)C(=O)N[C@@H](Cc1ccccc1)C(=O)N[C@@H](Cc1c[nH]cn1)C(N)=O [di-WP2] (I: H-WLNAKRHHGYKCKFH-NH2 / II: H-WLNAKRHHGYKCKFH-NH2; disulfide I:12-II:12 (inferred); N-terminus assumed) | 1.25 | – | not inhibited
